How the values were obtained:
K562 human tumor cells = experiment: Natural killer cell cytotoxicity of human PBMC against K562 tumor cells in vitro; format: cell-based
Description: Prior to conducting the above experiment, we examined the dose dependent effects of d-FEN on the ability of human PBMC obtained from five healthy volunteers (person Caucasians) to kill human K562 tumor cells in vitro. The potential cytotoxic enhancing effects of d-FEN and d-norFEN were compared using PBMC from two of the five human donors.
For assessment of immunological parameters of human PBMC, venous blood as aseptically drawn into sterile 10 ml tubes containing 20 U/ml preservative free heparin, diluted with an equal volume of Hank's Balanced Salt Solution (HBSS), layered over Lymphocyte Separation Medium (LSM, Bionetics, Kensington, Md.) and centrifuged at 1,000 ×g for 30 min. After centrifugation, the mononuclear cell layer was recovered from the interface and washed twice in HBSS and enumerated.
The K562 cell line originated from a chronic myelogenous leukemia patient and was obtained from Dr. T. Ellis (Director, Cellular Immunology Laboratory, LUMC). The K562 cells used for assessment of cytotoxic activity were maintained in long term cultures using Corning 25 cm^2 tissue culture flasks (Corning Glass Works, Corning, N.Y.) containing RPMI 1640 (Gibco Laboratories, Grand Island, N.Y.) supplemented with low LPS 10% fetal bovine serum (FBS; Gibco), 100 units/ml penicillin, 100 μg/ml streptomycin (Whittaker M. A. Bioproducts, Walkersville, Md.), 0.1 mM non-essential amino acids, and 2 mM L-glutamine (Gibco). This medium was used throughout, except where noted, and is referred to as "culture medium". The K562 cells were grown in suspension and were passaged three times per week by transfer of 10^6 K562 cells into a flask containing 10 ml of fresh culture medium. The K562 cells injected into the SCID mice were supplemented with fresh medium at a 1:3 dilution the day before administration. They were washed once in medium, pelleted by centrifugation at 500 ×g for 10 min., then resuspended at a concentration of 5×10^7. Subsequently, 0.2 ml (1×10^7 cells) of the cell suspension was injected (i.p.) into each SCID mouse. The K562 cells were administered to the animals four days after the injection of PBMC.
The K562 tumor cell lines maintained in vitro were washed once in culture medium, pelleted by centrifugation at 500×g for 10 min and resuspended in approximately 0.1 ml of culture medium. Subsequently, 100 μCi of [^51 Cr] (New England Nuclear, Boston, Mass.) was added to 1×10^5 cells in a final volume of 0.2 ml. The cells were incubated at 37° C. with 5% CO2 for 1 h with agitation every 10 min, then washed 3 times in HBSS, resuspended to 5×10^4 cells/ml in culture medium and 0.1 ml (5×10^3) aliquoted to each well of a 96 well round bottom assay plate (Corning Glass Works, Corning, N.Y.). Radiolabelled K562 was cultured for 4 h with lymphocytes at effector to target ratios ranging from 50:1 to 6:1. Following 4 h of culture the media was removed using a Skatron harvesting press (Skatron Inc., Sterling, Va.) and associated radioactivity determined. Maximum release was obtained by adding 0.05% Nonidet P-40 (Sigma Chemical Co., St. Louis, Mo.).
The results have been expressed as % cytotoxicity and calculated by the formula: % cytotoxicity=[(experimental DPM-minimum DPM)/(maximum DPM-minimum DPM)]×100.
All experimental means were calculated from triplicate values. Lytic units (LU) were calculated using a computer program written by David Coggins, FCRC, Frederick, Md.

TNF-α in CD8+ T cells = experiment: TNF-α production by CD8+ T cells, flow cytometry; format: cell-based, human; conditions: 50 ng/ml; for % Positive Cells (TNF-α immunopositive), d-FEN / TNF-α Titer, d-FEN: Mean ± SEM
Description: (§1) The T lymphocytes analyzed were obtained from 20 HIV+ patients (9 females and 11 males, 25-48 years of age). The patients were diagnosed as being HIV+ within the past 0.5-9 years, and 15 are being treated with antiviral drugs. The subjects' study identification number (indicates the order in which bloods were drawn), CD4+ and CD8+ counts (determined March, 1996, as part of the present study), age, sex, date of diagnosis, and pharmacotherapy are provided in Table 1.
(§2) The experimental protocol for this project is illustrated in Table A. Note that the cultures were exposed to two doses (5 and 50 ng/ml) of d-FEN in the mitogenesis assays, whereas only one dose (50 ng/ml) was used in the antifungal and cytokine release assays.
(§3) Cytokine Profiles. Peripheral mononuclear cells were isolated by the Ficoll-Hypaque method and washed twice with RPMI-1640 medium. Cell suspensions were made at 1×10^6 /ml and the cells activated with interleukin-2 (IL-2) for 18 h or 4 days at 37° C. under 5% CO^2 +95% air. Monensin (1 nM) then was added to the culture to block secretion of cytokines, and the cultures allowed to continue for another 3 h. The cells were washed twice with PBS+1% fetal calf serum (FCS) with 0.1% saponin+0.1% sodium azide, then washed once with PBS-1% FCS and stained with anti-cytokine MAb-FL conjugate for 30 min. Following two washes, the cells were analyzed by flow cytometry for production of IL-2, IFN-γ and TNF-α. The MAbs-FL conjugates were obtained from Pharmingen (San Diego, Calif.). Potential effects of on cytokine production were evaluated (a) as increases in the percentage of a T cell subset which produce the respective cytokine; and, (b) as increases in the amount of cytokine produced by each subset. The latter were analyzed as a shift of the cytokine histograms.
(§4) The data were analyzed by a one- or two-way analysis of variance (ANOVA) with repeated measures where appropriate ([…] version 1; Jandel, San Rafael, Calif.). Significant main effects were subjected to post hoc analysis using the Student-Newman Keuls All Pairwise Multiple Comparisons test or the Mann-Whitney U test.

[1] = whether by intravenous or oral administration; cited from earlier work
[2] = system: IL-2 in CD4+ (CD8-) T cells; experiment: IL-2 production by CD4+ (CD8-) T cells, flow cytometry; format: cell-based, human; conditions: for % Positive Cells (IL-2 immunopositive), d-FEN / IL-2 Titer, d-FEN: CD4+ (CD8-) T cells, Mean ± SEM
Description: as §1, §2, §3, §4

[3] = cited from earlier work

CCN[C@@H](C)Cc1cccc(C(F)(F)F)c1 [d-FEN]
Percent Change in Cytotoxicity (Mean ± SEM) (K562 human tumor cells; 0.25 ng/ml): 19 ± 2% | percent increase in cytotoxicity (K562 human tumor cells; 0.25 ng/ml, DONOR #1): 22% | percent increase in cytotoxicity (K562 human tumor cells; 0.25 ng/ml, DONOR #2): 19% | Percent Change in Cytotoxicity (Mean ± SEM) (K562 human tumor cells; 0.50 ng/ml): 28 ± 4% | percent increase in cytotoxicity (K562 human tumor cells; 0.50 ng/ml, DONOR #1): 36% | percent increase in cytotoxicity (K562 human tumor cells; 0.50 ng/ml, DONOR #2): 21% | Percent Change in Cytotoxicity (Mean ± SEM) (K562 human tumor cells; 1.00 ng/ml): 16 ± 3% | percent increase in cytotoxicity (K562 human tumor cells; 1.00 ng/ml, DONOR #1): 23% | percent increase in cytotoxicity (K562 human tumor cells; 1.00 ng/ml, DONOR #2): 17% | Percent Change in Cytotoxicity (Mean ± SEM) (K562 human tumor cells; 4.00 ng/ml): 11 ± 5% | Percent Change in Cytotoxicity (Mean ± SEM) (K562 human tumor cells; 20.00 ng/ml): -33 ± 5% | Percent Change in Cytotoxicity (Mean ± SEM) (K562 human tumor cells; 50.00 ng/ml): -53 ± 6% | Percent Change in Cytotoxicity (Mean ± SEM) (K562 human tumor cells; 100.00 ng/ml): -87 ± 2% | dose dependent effect on cytotoxicity in words (K562 human tumor cells; PBMC of five healthy volunteers, p<0.001): low doses of d-FEN enhanced whereas higher doses reduced cytotoxicity | d-FEN vs d-norFEN effect on cytotoxicity in words (K562 human tumor cells; PBMC of two donors): virtually identical effects | effect on capacity of human NK cells to kill K562, in words (K562 human tumor cells; conclusion): augments the capacity of human NK cells to kill the human tumor cell line, K562 | effect on TNF-α titer in words (TNF-α in CD8+ T cells): No significant effects on TNF-α titer were observed | % Positive Cells (TNF-α immunopositive), d-FEN (TNF-α in CD8+ T cells; AIDS): 62 ± 4% | TNF-α Titer, d-FEN (TNF-α in CD8+ T cells; AIDS): 329 ± 57 geometric mean channel fluorescence | % Positive Cells (TNF-α immunopositive), d-FEN (TNF-α in CD8+ T cells; non-AIDS HIV+): 69 ± 3% | TNF-α Titer, d-FEN (TNF-α in CD8+ T cells; non-AIDS HIV+): 392 ± 47 geometric mean channel fluorescence | activation at 0.05 µg/mL (TNF-α in CD8+ T cells; Homo sapiens, T-cell, AIDS, read-out: percent increase of TNF-α+ cells over VEH): 24% | protein binding [1]: about 36% | % Positive Cells (IL-2 immunopositive), d-FEN ([2]; 50 ng/ml, AIDS): 9 ± 4% | IL-2 Titer, d-FEN ([2]; 50 ng/ml, AIDS): 213 ± 33 geometric mean channel fluorescence | % Positive Cells (IL-2 immunopositive), d-FEN ([2]; 50 ng/ml, non-AIDS HIV+): 32 ± 3% | IL-2 Titer, d-FEN ([2]; 50 ng/ml, non-AIDS HIV+): 308 ± 27 geometric mean channel fluorescence | effect on IL-2 levels in words ([2]; 50 ng/ml, CD4+ T cells, non-AIDS): not in the non-AIDS patients' CD4+ T cells | activation at 0.05 µg/mL ([2]; Homo sapiens, T-cell, read-out: percent increase of IL-2 titer over VEH): 55% | level in tissue and in plasma ([3]; 5 mg dextrofenfluramine per os): about 5 ng/ml | conversion to metabolite dextronorfenfluramine ([3]; upon administration, in vivo): partially converts upon administration to its metabolite dextronorfenfluramine

Source: patent US5955508A, “Method for the enhancement of lymphocyte activity against opportunistic microbial pathogens” (priority 1996, dated 1999)
